Earlier results in patent publication US9504685B2, “Method for treating a pulmonary hypertension condition” (Gilead Sciences, Inc., priority 2006, dated 2016).

Test system: p450
Details: cited from earlier work

COC(c1ccccc1)(c1ccccc1)[C@H](Oc1nc(C)cc(C)n1)C(=O)O [ambrisentan]
drug interactions (p450 induction or inhibition): no p450 induction or inhibition
